These compounds were tested against ROCK2 (Homo sapiens (Human), UniProt O75116).
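Further: rho kinase enzyme reaction halted with EDTA, phospho- and non-phospho peptide separated for read-out, kinase activity inhibition derived across a dose-response series, DMSO under 2%.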

Chain of ROCK2 (O75116 whole entry, species assumed): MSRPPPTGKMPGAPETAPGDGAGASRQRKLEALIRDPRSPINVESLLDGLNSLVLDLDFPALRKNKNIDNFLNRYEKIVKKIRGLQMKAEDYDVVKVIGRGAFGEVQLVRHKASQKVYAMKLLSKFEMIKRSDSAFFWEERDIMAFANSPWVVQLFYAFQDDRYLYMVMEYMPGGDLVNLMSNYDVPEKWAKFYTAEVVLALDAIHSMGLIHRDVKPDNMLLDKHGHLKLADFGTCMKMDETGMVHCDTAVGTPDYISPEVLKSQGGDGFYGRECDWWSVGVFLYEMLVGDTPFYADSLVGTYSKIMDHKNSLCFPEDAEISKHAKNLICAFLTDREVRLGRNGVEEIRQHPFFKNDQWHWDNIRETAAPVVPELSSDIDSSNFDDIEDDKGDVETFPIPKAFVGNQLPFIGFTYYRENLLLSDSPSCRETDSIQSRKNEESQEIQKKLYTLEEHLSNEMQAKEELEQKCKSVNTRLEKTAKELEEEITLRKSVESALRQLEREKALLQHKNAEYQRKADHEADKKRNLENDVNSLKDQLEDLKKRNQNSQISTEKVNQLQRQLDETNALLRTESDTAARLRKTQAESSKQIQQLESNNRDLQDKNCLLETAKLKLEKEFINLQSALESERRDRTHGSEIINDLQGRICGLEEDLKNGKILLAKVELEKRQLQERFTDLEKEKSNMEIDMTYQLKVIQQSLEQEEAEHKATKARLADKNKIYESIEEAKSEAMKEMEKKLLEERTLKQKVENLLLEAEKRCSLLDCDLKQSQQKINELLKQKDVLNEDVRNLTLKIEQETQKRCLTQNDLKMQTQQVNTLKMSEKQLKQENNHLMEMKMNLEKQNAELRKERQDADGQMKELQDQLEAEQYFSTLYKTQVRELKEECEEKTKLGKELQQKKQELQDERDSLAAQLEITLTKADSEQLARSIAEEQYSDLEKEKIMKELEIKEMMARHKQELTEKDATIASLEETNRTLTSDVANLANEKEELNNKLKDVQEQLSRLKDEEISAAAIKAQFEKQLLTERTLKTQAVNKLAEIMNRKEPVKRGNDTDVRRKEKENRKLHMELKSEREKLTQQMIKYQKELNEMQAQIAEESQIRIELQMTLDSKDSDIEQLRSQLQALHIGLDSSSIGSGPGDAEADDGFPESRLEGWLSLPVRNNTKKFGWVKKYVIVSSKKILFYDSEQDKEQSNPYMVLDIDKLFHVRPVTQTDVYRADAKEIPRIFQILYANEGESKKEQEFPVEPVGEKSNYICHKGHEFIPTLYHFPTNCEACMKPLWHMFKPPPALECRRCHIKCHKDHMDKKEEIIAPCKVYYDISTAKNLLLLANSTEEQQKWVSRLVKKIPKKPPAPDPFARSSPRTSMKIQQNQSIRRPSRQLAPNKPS

IC50 | SMILES
10 to 100 nM | COc1cc(NC2CCN(c3ccc(-c4cn[nH]c4)cn3)C2=O)ccc1F (single isomer, unassigned) [Example 84, 1-(5-(1H-pyrazol-4-yl)pyridin-2-yl)-3-((4-fluoro-3-methoxyphenyl)amino)pyrrolidin-2-one]
< 10 nM | COc1cccc(NC2CCN(c3ccc(-c4cn[nH]c4)cn3)C2=O)c1 (single isomer, unassigned) [Example 86, 1-(5-(1H-pyrazol-4-yl)pyridin-2-yl)-3-((3-methoxyphenyl)amino)pyrrolidin-2-one]
10 to 100 nM | COc1cc(F)cc(NC2CCN(c3ccc(-c4cn[nH]c4)cn3)C2=O)c1 (single isomer, unassigned) [Example 87, 1-(5-(1H-pyrazol-4-yl)pyridin-2-yl)-3-((3-fluoro-5-methoxyphenyl)amino)pyrrolidin-2-one]
10 to 100 nM | COc1cc(NC2CCN(c3ccc(-c4cn[nH]c4)c(OC(F)F)c3)C2=O)ccc1F (single isomer, unassigned) [Example 107, 1-[3-(difluoromethoxy)-4-(1H-pyrazol-4-yl)phenyl]-3-[(4-fluoro-3-methoxyphenyl)amino]pyrrolidin-2-one]
100 to 2200 nM | COc1cccc(OC2CCN(c3ccc(-c4ccc5cn[nH]c5c4)c(OC)n3)C2=O)c1 (single isomer, unassigned) [Example 125, 1-(5-(1H-indazol-6-yl)-6-methoxypyridin-2-yl)-3-(3-methoxyphenoxy)pyrrolidin-2-one]
10 to 100 nM | COc1cc(N2CCC(Nc3c(F)cccc3OC)C2=O)ccc1-c1cn[nH]c1 (single isomer, unassigned) [Example 136, 3-((2-fluoro-6-methoxyphenyl)amino)-1-(3-methoxy-4-(1H-pyrazol-4-yl)phenyl) pyrrolidin-2-one]
< 10 nM | COc1cc(F)cc(NC2CCN(c3ccc(-c4cn[nH]c4)c(OC)c3)C2=O)c1 (single isomer, unassigned) [Example 138, 3-((3-fluoro-5-methoxyphenyl)amino)-1-(3-methoxy-4-(1H-pyrazol-4-yl)phenyl) pyrrolidin-2-one]
100 to 2200 nM | COc1cc(NC2CCN(c3ccc(-c4cn[nH]c4)c(OC)c3)C2=O)cc(OC)c1 (single isomer, unassigned) [Example 140, 3-((3,5-dimethoxyphenyl)amino)-1-(3-methoxy-4-(1H-pyrazol-4-yl)phenyl) pyrrolidin-2-one]
100 to 2200 nM | COc1ccc(NC2CCN(c3ccc(-c4cn[nH]c4)c(OC)c3)C2=O)cc1F (single isomer, unassigned) [Example 142, 3-((3-fluoro-4-methoxyphenyl)amino)-1-(3-methoxy-4-(1H-pyrazol-4-yl)phenyl) pyrrolidin-2-one]
100 to 2200 nM | COc1cc(F)ccc1NC1CCN(c2ccc(-c3cn[nH]c3)c(OC)c2)C1=O (single isomer, unassigned) [Example 144, 3-((4-fluoro-2-methoxyphenyl)amino)-1-(3-methoxy-4-(1H-pyrazol-4-yl)phenyl) pyrrolidin-2-one]
10 to 100 nM | COc1ccc(F)c(NC2CCN(c3ccc(-c4cn[nH]c4)c(OC)c3)C2=O)c1 (single isomer, unassigned) [Example 149, 3-((2-fluoro-5-methoxyphenyl)amino)-1-(3-methoxy-4-(1H-pyrazol-4-yl)phenyl) pyrrolidin-2-one]
100 to 2200 nM | COc1ccc(NC2CCN(c3ccc(-c4cn[nH]c4)c(OC)c3)C2=O)c(F)c1 (single isomer, unassigned) [Example 153, 3-((2-fluoro-4-methoxyphenyl)amino)-1-(3-methoxy-4-(1H-pyrazol-4-yl)phenyl) pyrrolidin-2-one]
100 to 2200 nM | COc1ccc(NC2CCN(c3ccc(-c4cn[nH]c4)c(Cl)c3)C2=O)cc1F (single isomer, unassigned) [Example 157, 1-(3-chloro-4-(1H-pyrazol-4-yl)phenyl)-3 ((3-fluoro-4-methoxyphenyl)amino) pyrrolidin-2-one]
100 to 2200 nM | COc1cc(F)cc(NC2CCN(c3ccc(-c4cn[nH]c4)c(Cl)c3)C2=O)c1 (single isomer, unassigned) [Example 159, 1-(3-chloro-4-(1H-pyrazol-4-yl)phenyl)-3 ((3-fluoro-5-methoxyphenyl)amino) pyrrolidin-2-one]
100 to 2200 nM | COc1cc(NC2CCN(c3ccc(-c4cn[nH]c4)cc3Cl)C2=O)ccc1F (single isomer, unassigned) [Example 163, 1-(2-chloro-4-(1H-pyrazol-4-yl)phenyl)-3-((4-fluoro-3-methoxyphenyl)amino) pyrrolidin-2-one]
100 to 2200 nM | COc1cccc(NC2CCN(c3ccc(-c4cn[nH]c4)cc3Cl)C2=O)c1 (single isomer, unassigned) [Example 167, 1-(2-chloro-4-(1H-pyrazo1-4-yl)phenyl)-3 ((3-methoxyphenyl)amino)pyrrolidin-2-one]
100 to 2200 nM | COc1cc(F)cc(NC2CCN(c3ccc(-c4cn[nH]c4)cc3Cl)C2=O)c1 (single isomer, unassigned) [Example 169, 1-(2-chloro-4-(1H-pyrazol-4-yl)phenyl)-3 ((3-fluoro-5-methoxyphenyl)amino) pyrrolidin-2-one]

IC50 | SMILES
100 to 2200 nM | COCc1cc(N2CCC(Nc3ccc(F)c(OC)c3)C2=O)ccc1-c1cn[nH]c1 (single isomer, unassigned) [Example 182, 3-((4-fluoro-3-methoxyphenyl)amino)-1-(3-(methoxymethyl)-4-(1H-pyrazol-4-yl)phenyl)pyrrolidin-2-one]
10 to 100 nM | Cc1nc(N2CCC(Nc3cccc(OCC4CC4)c3)C2=O)ccc1-c1cn[nH]c1 (single isomer, unassigned) [Example 191, 3-((3-(cyclopropylmethoxy)phenyl)amino)-1-(6-methyl-5-(1H-pyrazol-4-yl)pyridin-2-yl)pyrrolidin-2-one]
10 to 100 nM | COc1cc(NC2CCN(c3ccc(-c4cn[nH]c4)c(C)n3)C2=O)ccc1F (single isomer, unassigned) [Example 195, 3-((4-fluoro-3-methoxyphenyl)amino)-1-(6-methyl-5-(1H-pyrazol-4-yl)pyridin-2-yl)pyrrolidin-2-one]
< 10 nM | COc1cccc(NC2CCN(c3ccc(-c4cn[nH]c4)c(OC)n3)C2=O)c1 (single isomer, unassigned) [Example 197, 1-(6-methoxy-5-(1H-pyrazol-4-yl)pyridin-2-yl)-3-((3-methoxyphenyl)amino) pyrrolidin-2-one]
< 10 nM | COc1cc(F)cc(NC2CCN(c3ccc(-c4cn[nH]c4)c(OC)n3)C2=O)c1 (single isomer, unassigned) [Example 199, 3-((3-fluoro-5-methoxyphenyl)amino)-1-(6-methoxy-5-(1H-pyrazol-4-yl)pyridin-2 yl)pyrrolidin-2-one]
10 to 100 nM | Cc1nc(N2CCC(Nc3cccc(OC(F)F)c3)C2=O)ccc1-c1cn[nH]c1 (single isomer, unassigned) [Example 202, 3-((3-(difluoromethoxy)phenyl)amino)-1-(6-methyl-5-(1H-pyrazol-4-yl)pyridin-2-yl)pyrrolidin-2-one]
100 to 2200 nM | CCc1cc(N2CCC(Nc3cccc(OC)c3)C2=O)ncc1-c1cn[nH]c1 (single isomer, unassigned) [Example 204, 1-(4-ethyl-5-(1H-pyrazol-4-yl)pyridin-2-yl)-3-((3-methoxyphenyl)amino) pyrrolidin-2-one]
< 10 nM | COc1cc(NC2CCN(c3ccc(-c4cn[nH]c4)c(OC)n3)C2=O)ccc1F (single isomer, unassigned) [Example 208, 3-((4-fluoro-3-methoxyphenyl)amino)-1-(6-methoxy-5-(1H-pyrazol-4-yl)pyridin-2-yl)pyrrolidin-2-one]
< 10 nM | COc1nc(N2CCC(Nc3cccc(OCC4CC4)c3)C2=O)ccc1-c1cn[nH]c1 (single isomer, unassigned) [Example 215, 3-((3-(cyclopropylmethoxy)phenyl)amino)-1-(6-methoxy-5-(1H-pyrazol-4-yl)pyridin-2-yl)pyrrolidin-2-one]
< 10 nM | CCOc1cccc(NC2CCN(c3ccc(-c4cn[nH]c4)c(OC)n3)C2=O)c1 (single isomer, unassigned) [Example 219, 3-((3-ethoxyphenyl)amino)-1-(6-methoxy-5-(1H-pyrazol-4-yl)pyridin-2-yl)pyrrolidin-2-one]
< 10 nM | COc1nc(N2CCC(Nc3cccc(OC(F)F)c3)C2=O)ccc1-c1cn[nH]c1 (single isomer, unassigned) [Example 221, 3-((3-(difluoromethoxy)phenyl)amino)-1-(6-methoxy-5-(1H-pyrazol-4-yl)pyridin-2-yl)pyrrolidin-2-one]
10 to 100 nM | COc1ccc(F)c(NC2CCN(c3ccc(-c4cn[nH]c4)cc3)C2=O)c1 (single isomer, unassigned) [Example 240, 1-(4-(1H-pyrazol-4-yl)phenyl)-3-((2-fluoro-5-methoxyphenyl)amino)pyrrolidin-2-one]
10 to 100 nM | CCc1cc(N2CCC(Nc3ccc(F)c(OC)c3)C2=O)ccc1-c1cn[nH]c1 (single isomer, unassigned) [Example 242, 1-(3-ethyl-4-(1H-pyrazol-4-yl)phenyl)-3-((4-fluoro-3-methoxyphenyl)amino) pyrrolidin-2-one]
10 to 100 nM | CNc1nc(N2CCC(Nc3cccc(OC)c3)C2=O)ccc1-c1cn[nH]c1 (single isomer, unassigned) [Example 254, 3-((3-methoxyphenyl)amino)-1-(6-(methylamino)-5-(1H-pyrazol-4-yl)pyridin-2-yl)pyrrolidin-2-one]
10 to 100 nM | COc1cccc(NC2CCN(c3ccc(-c4cn[nH]c4)nc3)C2=O)c1 (single isomer, unassigned) [Example 298, 1-(6-(1H-pyrazol-4-yl)pyridin-3-yl)-3-((3-methoxyphenyl)amino)pyrrolidin-2-one]
10 to 100 nM | COc1cc(NC2CCN(c3ccc(-c4cn[nH]c4)nc3)C2=O)ccc1F (single isomer, unassigned) [Example 300, 1-(6-(1H-pyrazol-4-yl)pyridin-3-yl)-3-((4-fluoro-3-methoxyphenyl)amino)pyrrolidin-2-one]
10 to 100 nM | COc1ccc(F)c(NC2CCN(c3ccc(-c4cn[nH]c4)cn3)C2=O)c1 (single isomer, unassigned) [Example 304, 1-(5-(1H-pyrazol-4-yl)pyridin-2-yl)-3-((2-fluoro-5-methoxyphenyl)amino)pyrrolidin-2-one]

Reference: patent US10112929B2, “Lactams as inhibitors of rock” (BRISTOL-MYERS SQUIBB COMPANY, priority 2015, dated 2018)
